From patent US11306084B2, “Integrin antagonists” (Saint Louis University, priority 2016, dated 2022)
Counter-ions that a name gives are not always drawn.

Columns and labels:
Type in all cases: binding
[1] = biological target: T1, Recombinant human integrin ανβ6 (Homo sapiens, UniProt P06756+P18564); test: Solid Phase Receptor Assay (SPRA) for ανβ6 function; details: plate-bound human LAP; read-out: αvβ6 SPRA IC50
T1 construct: purchased R&D Systems 3817-AV
Description: E. Solid Phase Receptor Assay (SPRA) for ανβ6 Function
Wells were washed 3 times with 150 μL TBS+, and then 150 μL of blocking buffer (TBS+ with 1% bovine serum albumin, Sigma A7906) was added. The plate was incubated for 1 hr at 37° C., and then washed 3× with TBS+ buffer. […] Compounds were diluted to 20 μM and then 1 μL was added to each well of the plate according to a standard template with each sample repeated in triplicate. After incubation for two hours at room temperature, the plate was washed 3× with 150 μL of TBS+ buffer. To each well, 50 μL of biotinylated anti-αν antibody (R&D Systems, BAF1219) at 0.5 μg/mL in TBS+/0.1% BSA were added and the plate was covered and incubated for 1 hr at room temperature. After washing the plate 3× with 150 μL of TBS+ buffer, 50 μL of streptavidin-conjugated horseradish peroxidase (R&D Systems, DY998) diluted in TBS+ blocking buffer were added to the wells and the plate incubated for 20 min at room temperature. The plate was washed 3× with TBS+ buffer followed by 50 μL of TMB substrate (Sigma T4444) added to each well in the dark and the plate incubated for 10 min at room temperature. 25 μL of 1.0 M phosphoric acid was added as a stop solution and the plates were read at 450 nm using a Spectramax plate reader.

[2] = biological target: T2, Recombinant human integrin ανβ5 (Homo sapiens, UniProt P06756+P18084); test: Solid Phase Receptor Assay (SPRA) for ανβ5 function; details: plate-bound human vitronectin; read-out: αvβ5 SPRA IC50
T2 construct: purchased R&D Systems 2528-AV
T2 sequence (P06756 31-992 limits assumed): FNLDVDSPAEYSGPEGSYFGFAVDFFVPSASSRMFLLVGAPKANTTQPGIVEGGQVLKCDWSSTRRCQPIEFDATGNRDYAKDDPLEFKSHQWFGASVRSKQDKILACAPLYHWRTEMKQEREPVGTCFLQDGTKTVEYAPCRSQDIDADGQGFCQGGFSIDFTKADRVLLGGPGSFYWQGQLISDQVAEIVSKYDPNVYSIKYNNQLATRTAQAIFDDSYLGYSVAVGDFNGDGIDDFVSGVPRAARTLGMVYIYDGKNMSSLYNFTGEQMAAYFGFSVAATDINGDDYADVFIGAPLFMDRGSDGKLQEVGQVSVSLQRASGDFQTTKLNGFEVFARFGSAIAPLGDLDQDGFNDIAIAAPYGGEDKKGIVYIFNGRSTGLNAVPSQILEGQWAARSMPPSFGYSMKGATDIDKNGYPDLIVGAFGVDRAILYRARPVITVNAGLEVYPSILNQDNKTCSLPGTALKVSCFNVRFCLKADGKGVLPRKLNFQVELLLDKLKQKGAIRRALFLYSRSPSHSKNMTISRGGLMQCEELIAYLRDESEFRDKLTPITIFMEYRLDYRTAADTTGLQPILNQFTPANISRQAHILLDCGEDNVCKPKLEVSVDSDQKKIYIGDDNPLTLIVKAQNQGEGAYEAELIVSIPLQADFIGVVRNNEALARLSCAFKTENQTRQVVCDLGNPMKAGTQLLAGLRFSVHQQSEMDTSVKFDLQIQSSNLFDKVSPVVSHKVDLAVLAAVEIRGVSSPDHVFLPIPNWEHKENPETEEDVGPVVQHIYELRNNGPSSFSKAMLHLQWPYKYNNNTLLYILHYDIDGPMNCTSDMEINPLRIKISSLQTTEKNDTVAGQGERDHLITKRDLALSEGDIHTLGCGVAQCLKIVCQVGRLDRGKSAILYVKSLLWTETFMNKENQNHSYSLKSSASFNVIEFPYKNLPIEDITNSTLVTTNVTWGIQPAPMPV
T2 sequence (P18084 24-719 limits assumed): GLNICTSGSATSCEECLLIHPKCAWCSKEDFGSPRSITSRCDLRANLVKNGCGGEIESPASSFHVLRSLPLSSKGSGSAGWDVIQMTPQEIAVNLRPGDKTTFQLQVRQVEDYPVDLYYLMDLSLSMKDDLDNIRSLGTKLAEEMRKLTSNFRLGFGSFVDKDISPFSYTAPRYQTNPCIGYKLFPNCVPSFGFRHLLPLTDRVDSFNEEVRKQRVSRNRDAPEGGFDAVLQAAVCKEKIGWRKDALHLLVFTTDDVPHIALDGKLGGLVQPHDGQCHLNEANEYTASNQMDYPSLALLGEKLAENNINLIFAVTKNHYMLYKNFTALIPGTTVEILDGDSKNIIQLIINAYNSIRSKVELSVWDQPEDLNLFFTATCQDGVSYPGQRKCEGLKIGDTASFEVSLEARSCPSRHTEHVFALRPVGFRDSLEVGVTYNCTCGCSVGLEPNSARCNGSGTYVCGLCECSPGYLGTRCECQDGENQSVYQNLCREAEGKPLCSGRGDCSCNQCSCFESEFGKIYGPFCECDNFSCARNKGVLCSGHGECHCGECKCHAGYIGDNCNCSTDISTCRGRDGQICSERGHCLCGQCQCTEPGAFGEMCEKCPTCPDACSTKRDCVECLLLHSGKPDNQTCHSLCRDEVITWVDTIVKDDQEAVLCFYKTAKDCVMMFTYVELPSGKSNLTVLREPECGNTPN
Description: D. Solid Phase Receptor Assay (SPRA) for ανβ5 Function
Wells were washed 3 times with 150 μL TBS+ and then 150 μL of blocking buffer (TBS+ with 1% bovine serum albumin, Sigma A7906) was added. The plate was incubated for 1 hr at 37° C. and then washed 3× with TBS+ buffer. […] Compounds were diluted to 20 μM and then 1 μL was added to each well of the plate according to a standard template with each sample repeated in triplicate. After incubation for two hours at room temperature, the plate was washed 3× with 150 μL of TBS+ buffer. To each well, 50 μl of biotinylated anti-αν antibody (R&D Systems, BAF1219) at 0.5 μg/mL in TBS+/0.1% BSA at 0.5 μg/mL were added and the plate covered and incubated for 1 hr at room temperature. After washing the plate 3 with 150 μL of TBS+ buffer, 50 μL of streptavidin-conjugated horseradish peroxidase (R&D Systems, DY998) diluted in TBS+ blocking buffer were added to the wells and the plate incubated for 20 min at room temperature. The plate was washed 3× with TBS+ buffer followed by 50 μL of TMB substrate (Sigma T4444) added to each well in the dark and the plate incubated for 5 min at room temperature. 25 μL of 1.0 M phosphoric acid was added as a stop solution and the plates were read at 450 nm using a Spectramax plate reader.

[3] = biological target: T3, Recombinant human integrin ανβ1 (Homo sapiens, UniProt P05556+P06756); test: Solid Phase Receptor Assay (SPRA) for ανβ1 function; details: plate-bound human fibronectin; read-out: αvβ1 SPRA IC50
T3 construct: purchased R&D Systems 6579-AV
T3 sequence (P06756 31-992 limits assumed): as the sequence (P06756 31-992 limits assumed) above
T3 sequence (P05556 21-728 limits assumed): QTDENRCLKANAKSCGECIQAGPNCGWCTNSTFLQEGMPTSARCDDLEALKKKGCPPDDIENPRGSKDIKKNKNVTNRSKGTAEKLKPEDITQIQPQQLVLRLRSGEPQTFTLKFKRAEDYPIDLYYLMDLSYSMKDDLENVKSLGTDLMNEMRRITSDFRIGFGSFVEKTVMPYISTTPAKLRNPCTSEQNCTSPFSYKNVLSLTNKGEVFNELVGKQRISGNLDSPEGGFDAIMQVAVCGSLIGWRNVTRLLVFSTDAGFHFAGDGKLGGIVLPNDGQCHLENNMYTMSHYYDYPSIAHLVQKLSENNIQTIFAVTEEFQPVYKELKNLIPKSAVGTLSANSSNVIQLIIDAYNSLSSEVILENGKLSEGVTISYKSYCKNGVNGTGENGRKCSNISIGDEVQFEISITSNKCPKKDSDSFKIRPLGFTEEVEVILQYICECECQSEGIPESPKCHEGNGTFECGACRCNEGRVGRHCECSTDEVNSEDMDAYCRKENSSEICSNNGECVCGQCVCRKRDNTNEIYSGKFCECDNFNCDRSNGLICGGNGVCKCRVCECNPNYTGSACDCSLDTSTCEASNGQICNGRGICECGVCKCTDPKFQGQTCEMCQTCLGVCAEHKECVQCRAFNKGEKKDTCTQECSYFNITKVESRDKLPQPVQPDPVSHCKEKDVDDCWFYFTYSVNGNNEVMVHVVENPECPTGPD
Description: B. Solid Phase Receptor Assay (SPRA) for ανβ1 Function
Wells were washed 3 times with 150 μL TBS+ and then 150 μL of blocking buffer (TBS+ with 1% bovine serum albumin, Sigma A7906) was added. The plate was incubated for 1 hr at 37° C. and then washed 3× with TBS+ buffer. […] Compounds were diluted to 20 μM and 1 μL was added to each well of the plate according to a standard template with each sample repeated in triplicate. After incubation for two hours at room temperature, the plate was washed 3 with 150 μL of TBS+ buffer. To each well, 50 μL of biotinylated anti-αν antibody (R&D Systems, BAF1219) at 1 μg/mL in TBS+/0.1% BSA were added and the plate covered and incubated for 1 hr at room temperature. After washing the plate 3× with 150 μL of TBS+ buffer, 50 μL of streptavidin-conjugated horseradish peroxidase (R&D Systems, DY998) diluted in TBS+ blocking buffer were added to the wells and the plate incubated for 20 min at room temperature. The plate was washed 3× with TBS+ buffer followed by 50 μL of TMB substrate (Sigma, T4444) added to each well in the dark and the plate incubated for 25 min at room temperature. 25 μL of 1.0 M phosphoric acid was added as a stop solution and the plates were read at 450 nm using a Spectramax plate reader.

[4] = biological target: T4, Recombinant human integrin ανβ8 (Homo sapiens, UniProt P06756+P26012); test: Solid Phase Receptor Assay (SPRA) for ανβ8 function; details: plate-bound human LAP; read-out: αvβ8 SPRA IC50
T4 construct: purchased R&D Systems 4135-AV
T4 sequence (P06756 31-992 limits assumed): as the sequence (P06756 31-992 limits assumed) above
T4 sequence (P26012 43-684 limits assumed): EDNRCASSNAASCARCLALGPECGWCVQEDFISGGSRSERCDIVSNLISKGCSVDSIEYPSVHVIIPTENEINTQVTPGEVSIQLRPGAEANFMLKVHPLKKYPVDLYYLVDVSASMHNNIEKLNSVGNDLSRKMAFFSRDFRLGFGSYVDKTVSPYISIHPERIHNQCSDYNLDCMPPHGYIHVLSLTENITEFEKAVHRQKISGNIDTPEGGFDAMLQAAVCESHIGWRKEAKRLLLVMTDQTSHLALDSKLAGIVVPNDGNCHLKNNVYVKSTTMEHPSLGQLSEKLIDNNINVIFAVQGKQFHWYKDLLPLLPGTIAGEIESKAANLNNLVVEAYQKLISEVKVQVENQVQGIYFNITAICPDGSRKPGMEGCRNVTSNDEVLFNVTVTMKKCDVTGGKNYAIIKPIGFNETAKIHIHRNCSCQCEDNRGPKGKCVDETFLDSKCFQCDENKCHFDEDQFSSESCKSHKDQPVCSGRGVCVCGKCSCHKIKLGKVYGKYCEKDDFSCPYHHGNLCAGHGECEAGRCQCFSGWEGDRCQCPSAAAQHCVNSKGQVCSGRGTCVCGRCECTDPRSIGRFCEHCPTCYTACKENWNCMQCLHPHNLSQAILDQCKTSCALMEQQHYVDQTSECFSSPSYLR
Description: F. Solid Phase Receptor Assay (SPRA) for ανβ8 Function
Wells were washed 3 times with 150 μL TBS+ and then 150 μL of blocking buffer (TBS+ with 1% bovine serum albumin, Sigma A7906) was added. The plate was incubated for 1 hr at 37° C. and then washed 3× with TBS+. […] Compounds were diluted to 20 μM and 1 μL was added to each well of the plate according to a standard template with each sample repeated in triplicate. After incubation for two hours at room temperature, the plate was washed 3× with 150 μL of TBS+. To each well, 50 μL of biotinylated anti-αν antibody (R&D Systems, BAF1219) at 1 μg/mL in TBS+/0.1% BSA were added and the plate was covered and incubated for 1 hr at room temperature. After washing the plate 3× with 150 μL. of TBS+ buffer, 50 μL of streptavidin-conjugated horseradish peroxidase (R&D Systems, DY998) diluted in TBS+ blocking buffer were added to the wells and the plate incubated for 20 min at room temperature. The plate was washed 3× with TBS+ followed by 50 μL of TMB substrate (Sigma T4444) added to each well in the dark and the plate incubated for 10 min at room temperature. 25 μL of 1.0 M phosphoric acid was added as a stop solution and the plates were read at 450 nm using a Spectramax plate reader.

T1 sequence (P06756 31-992 limits assumed): as the sequence (P06756 31-992 limits assumed) above
T1 sequence (P18564 22-707 limits assumed): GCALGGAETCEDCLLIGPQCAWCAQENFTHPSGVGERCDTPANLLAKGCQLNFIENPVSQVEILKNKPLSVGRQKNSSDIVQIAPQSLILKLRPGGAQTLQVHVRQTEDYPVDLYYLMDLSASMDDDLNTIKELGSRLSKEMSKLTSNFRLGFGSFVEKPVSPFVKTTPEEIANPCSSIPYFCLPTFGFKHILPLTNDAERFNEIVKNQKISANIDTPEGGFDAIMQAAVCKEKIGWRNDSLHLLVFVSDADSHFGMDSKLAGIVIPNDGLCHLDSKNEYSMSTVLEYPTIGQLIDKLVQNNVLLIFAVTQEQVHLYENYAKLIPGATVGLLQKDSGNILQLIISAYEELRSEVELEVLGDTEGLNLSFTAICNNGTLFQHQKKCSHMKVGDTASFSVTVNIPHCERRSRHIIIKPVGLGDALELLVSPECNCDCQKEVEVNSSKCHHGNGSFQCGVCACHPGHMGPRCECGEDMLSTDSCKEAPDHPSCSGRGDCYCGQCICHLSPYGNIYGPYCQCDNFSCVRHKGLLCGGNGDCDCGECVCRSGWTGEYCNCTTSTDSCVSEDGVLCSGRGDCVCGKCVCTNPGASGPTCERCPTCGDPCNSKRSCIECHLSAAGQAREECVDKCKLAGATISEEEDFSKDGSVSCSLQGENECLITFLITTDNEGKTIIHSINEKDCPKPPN

Row | Structure (SMILES) | IC50 [1] | IC50 [2] | IC50 [3] | IC50 [4]
1 | Cn1nc(CC(CC(=O)O)c2ccc3c(c2)OCCO3)cc1OCCc1ccc2c(n1)NCCC2 (stereo not shown) [Example 1, 3-(2,3-dihydrobenzo[b][1,4]dioxin-6-yl)-4-(1-methyl-5-(2-(5,6,7,8-tetrahydro-1,8-naphthyridin-2-yl)ethoxy)-1H-pyrazol-3-yl)butanoic Acid] | 35 nM | 0.9 nM | 6 nM | 52 nM
2 | Cn1nc(CC(CC(=O)O)c2cc(F)cc(Cl)c2)cc1OCCc1ccc2c(n1)NCCC2 (stereo not shown) [Example 2, 3-(3-chloro-5-fluorophenyl)-4-(1-methyl-5-(2-(5,6,7,8-tetrahydro-1,8-naphthyridin-2-yl)ethoxy)-1H-pyrazol-3-yl)butanoic Acid] | 43 nM | 0.3 nM | 5 nM | 32 nM
3 | COc1ccc(C(CC(=O)O)Cc2cc(OCCc3ccc4c(n3)NCCC4)n(C)n2)cc1F (stereo not shown) [Example 3, 3-(3-fluoro-4-methoxyphenyl)-4-(1-methyl-5-(2-(5,6,7,8-tetrahydro-1,8-naphthyridin-2-yl)-ethoxy)-1H-pyrazol-3-yl)butanoic Acid] | 99 nM | 0.4 nM | 5 nM | 114 nM
4 | Cn1nc(CC(CC(=O)O)c2ccc(Br)c(F)c2)cc1OCCc1ccc2c(n1)NCCC2 (stereo not shown) [Example 4, 3-(4-bromo-3-fluorophenyl)-4-(1-methyl-5-(2-(5,6,7,8-tetrahydro-1,8-naphthyridin-2-yl)ethoxy)-1H-pyrazol-3-yl)butanoic Acid] | 189 nM | 0.5 nM | 5 nM | 79 nM
5 | Cn1nc(CC(CC(=O)O)c2ccc(F)c(Br)c2)cc1OCCc1ccc2c(n1)NCCC2 (stereo not shown) [Example 5, 3-(3-bromo-4-fluorophenyl)-4-(1-methyl-5-(2-(5,6,7,8-tetrahydro-1,8-naphthyridin-2-yl)ethoxy)-1H-pyrazol-3-yl)butanoic Acid] | 73 nM | 0.4 nM | 11 nM | 16 nM
6 | Cn1nc(CC(CC(=O)O)c2cccc(Br)c2)cc1OCCc1ccc2c(n1)NCCC2 (stereo not shown) [Example 6, 3-(3-bromophenyl)-4-(1-methyl-5-(2-(5,6,7,8-tetrahydro-1,8-naphthyridin-2-yl)ethoxy)-1H-pyrazol-3-yl)butanoic Acid] | 8 nM | 0.4 nM | 10 nM | 19 nM
7 | Cn1nc(CC(CC(=O)O)c2ccc(F)c(C#N)c2)cc1OCCc1ccc2c(n1)NCCC2 (stereo not shown) [Example 7, 3-(3-cyano-4-fluorophenyl)-4-(1-methyl-5-(2-(5,6,7,8-tetrahydro-1,8-naphthyridin-2-yl)ethoxy)-1H-pyrazol-3-yl)butanoic Acid] | 50 nM | 0.6 nM | 7 nM | 23 nM
8 | Cn1nc(CC(CC(=O)O)c2ccc(C#N)c(F)c2)cc1OCCc1ccc2c(n1)NCCC2 (stereo not shown) [Example 8] | 52 nM | 1 nM | 12 nM | 48 nM
9 | Cn1nc(CC(CC(=O)O)c2cccc(C#N)c2)cc1OCCc1ccc2c(n1)NCCC2 (stereo not shown) [Example 9, 3-(3-cyanophenyl)-4-(1-methyl-5-(2-(5,6,7,8-tetrahydro-1,8-naphthyridin-2-yl)ethoxy)-1H-pyrazol-3-yl)butanoic Acid] | 12 nM | 0.2 nM | 9 nM | 62 nM
10 | Cn1nc(CC(CC(=O)O)c2cc(Br)cc(C(F)(F)F)c2)cc1OCCc1ccc2c(n1)NCCC2 (stereo not shown) [Example 10, 3-(3-bromo-5-(trifluoromethyl)phenyl)-4-(1-methyl-5-(2-(5,6,7,8-tetrahydro-1,8-naphthyridin-2-yl)ethoxy)-1H-pyrazol-3-yl)butanoic Acid] | 25 nM | 1 nM | 17 nM | 12 nM
11 | Cn1nc(CC(CC(=O)O)c2cc(Br)cc(OC(F)(F)F)c2)cc1OCCc1ccc2c(n1)NCCC2 (stereo not shown) [Example 11, 3-(3-bromo-5-(trifluoromethoxy)phenyl)-4-(1-methyl-5-(2-(5,6,7,8-tetrahydro-1,8-naphthyridin-2-yl)ethoxy)-1H-pyrazol-3-yl)butanoic Acid] | 60 nM | 0.8 nM | 11 nM | 42 nM
12 | COc1ccc(C(F)(F)F)cc1C(CC(=O)O)Cc1cc(OCCc2ccc3c(n2)NCCC3)n(C)n1 (stereo not shown) [Example 13, 3-(2-methoxy-5-(trifluoromethyl)phenyl)-4-(1-methyl-5-(2-(5,6,7,8-tetrahydro-1,8-naphthyridin-2-yl)ethoxy)-1H-pyrazol-3-yl)butanoic Acid Trifluoroacetate] | 51 nM | 16 nM | 5.8 nM | 26 nM
13 | COc1ccc(Br)cc1C(CC(=O)O)Cc1cc(OCCc2ccc3c(n2)NCCC3)n(C)n1 (stereo not shown) [Example 14, 3-(5-bromo-2-methoxyphenyl)-4-(1-methyl-5-(2-(5,6,7,8-tetrahydro-1,8-naphthyridin-2-yl)ethoxy)-1H-pyrazol-3-yl)butanoic acid trifluoroacetate] | 22 nM | 7.9 nM | 5 nM | 12 nM
14 | COc1ccc([C@H](CC(=O)O)Cc2cc(OCCc3ccc4c(n3)NCCC4)n(C)n2)cc1F [Example 15, (3S)-3-(3-fluoro-4-methoxyphenyl)-4-(1-methyl-5-(2-(5,6,7,8-tetrahydro-1,8-naphthyridin-2-yl)ethoxy)-1H-pyrazol-3-yl)butanoic Acid] | 49 nM | 0.3 nM | 3.8 nM | 90 nM
15 | Cn1nc(CC(CC(=O)O)c2cc(Br)cc(C(C)(C)C)c2)cc1OCCc1ccc2c(n1)NCCC2 (stereo not shown) [Example 16, 3-(3-bromo-5-tert-butyl-phenyl)-4-(1-methyl-5-(2-(5,6,7,8-tetrahydro-1,8-naphthyridin-2-yl)ethoxy)-1H-pyrazol-3-yl)butanoic Acid] | 80 nM | 3.1 nM | 3 nM | 7.8 nM
16 | Cn1nc(CC(CC(=O)O)c2cc(C#N)cc(C(C)(C)C)c2)cc1OCCc1ccc2c(n1)NCCC2 (stereo not shown) [Example 17] | 28 nM | 0.4 nM | 4.4 nM | 6.9 nM
